The data set can be described thus: in vitro. Conditions: for Measured concentration of PEA (analyte) / % Remaining of Initial / microsomal CLint at 1 μM / half-life at 1 μM / Concentration (μM) of analyte PEA, 0 min / Concentration (μM) of analyte PEA, 10 min / Concentration (μM) of analyte PEA, 20 min / Concentration (μM) of analyte PEA, 30 min / Concentration (μM) of analyte PEA, 60 min / % Remaining of Initial (n = 1), 0 min / % Remaining of Initial (n = 1), 10 min / % Remaining of Initial (n = 1), 20 min / % Remaining of Initial (n = 1), 30 min / % Remaining of Initial (n = 1), 60 min / microsomal CLint / half-life: male, CD-1, mouse; for Measured concentration of PEA (analyte) / % Remaining of Initial / Concentration (μM) of analyte PEA, 0 min / Concentration (μM) of analyte PEA, 10 min / Concentration (μM) of analyte PEA, 20 min / Concentration (μM) of analyte PEA, 30 min / Concentration (μM) of analyte PEA, 60 min / % Remaining of Initial (n = 1), 0 min / % Remaining of Initial (n = 1), 10 min / % Remaining of Initial (n = 1), 20 min / % Remaining of Initial (n = 1), 30 min / % Remaining of Initial (n = 1), 60 min: 1 μM. Here is the method:
(§1) Reaction mixture, minus cofactors, was prepared as described below. Test article was added into the reaction mixture at a final concentration of 1 μM. […] An aliquot of the reaction mixture (without cofactor cocktail) was equilibrated in a shaking water bath at 37° C. for 3 minutes. The reaction was initiated by the addition of cofactor cocktail, and the mixture was incubated in a shaking water bath at 37° C. Aliquots (100 μL) were withdrawn at 0, 10, 20, 30, and 60 minutes. Test article samples were immediately combined with 300 μL of ice-cold acetonitrile containing 1% formic acid. Control samples were immediately combined with 400 μL of ice-cold 50/50 acetonitrile (ACN)/dH2O containing 0.1% formic acid and internal standard to terminate the reaction. Samples were then mixed and centrifuged to precipitate proteins. Calibration standards were prepared in matched matrix. Samples and standards were assayed by LC-MS/MS using electrospray ionization for both the dosed prodrug and the expected drug (PEA). Analytical conditions are outlined in Appendix 8-1. Test article concentration at each time point was compared to test article concentration at time 0 to determine the percent remaining at each time point. Halflives were calculated using GraphPad software, fitting to a single-phase exponential decay equation.
as §1, with “for 5” for “for 3”, “minutes. Reaction” for “minutes. The reaction”, “and” for “and the”, “both” for “both the”, “Appendix 10-1.” for “Appendix 8-1.”
Reaction mixture, minus cofactors, was prepared as described below. Test article was added into the reaction mixture at a final concentration of 1 μM. […] An aliquot of the reaction mixture (without cofactor cocktail) was equilibrated in a shaking water bath at 37° C. for 3 minutes. Reaction was initiated by the addition of cofactor cocktail, and the mixture was incubated in a shaking water bath at 37° C. Aliquots (100 μL) were withdrawn at 0, 10, 20, 30, and 60 minutes. Test article samples were immediately combined with 300 μL of ice-cold acetonitrile containing 1% formic acid. Control samples were immediately combined with 400 μL of ice-cold 50/50 acetonitrile (ACN)/dH2O containing 0.1% formic acid and internal standard to terminate the reaction. Samples were then mixed and centrifuged to precipitate proteins. Calibration standards were prepared in matched matrix. Samples and standards were assayed by LC-MS/MS using electrospray ionization for both dosed prodrug and expected drug (PEA). Analytical conditions are outlined in Appendix 13-1. Test article concentration at each time point was compared to test article concentration at time 0 to determine the percent remaining at each time point. Halflives were calculated using GraphPad software, fitting to a single-phase exponential decay equation.

The mark [1] stands for this setting: control compound, mouse intestinal S9 fraction.

Where only a bound is given, the exact number is not on record here.

In general, microsomal CLint refers to a measure of how fast metabolising enzymes remove a compound, apart from limits set by blood flow. One may read the half-life as the time needed for the level to fall by half in the phase considered. In the case of `CCCCCCCCCCCCCCCC(=O)NCCOC(=O)CCC(=O)OC(CO)CO` [Compound I-8], the “Measured concentration of PEA (analyte)” value is, setting by setting: (0 min) 0.012 µM; (10 min) 0.12 µM; (20 min) 0.19 µM; (30 min) 0.22 µM; (60 min) 0.26 µM. The “% Remaining of Initial” value stood at 100% (s9, 0 h); 65% (s9, 10 min); 45% (s9, 20 min); 31% (s9, 0.5 h); 12% (s9, 1 h). In addition, the microsomal CLint at 1 μM (s9, CLint) turned out to be 38.9 µL/min/mg. In addition, the half-life at 1 μM (s9, Half-life) came to 0.3 h.
`CCCCCCCCCCCCCCCC(=O)NCCOC(=O)CCC(=O)OC(COC(=O)CCC)COC(=O)CCC` [Compound I-16]: the “Measured concentration of PEA (analyte)” value by setting is: (0 min) 0 µM; (10 min) 0.10 µM; (20 min) 0.17 µM; (30 min) 0.18 µM; (60 min) 0.26 µM. The “% Remaining of Initial” value by setting is: (s9, 0 h) 100%; (s9, 10 min) 2.0%; (s9, 20 min) less than 1.0%; (s9, 0.5 h) less than 1.0%; (s9, 1 h) less than 1.0%. The microsomal CLint at 1 μM (s9, CLint) is more than 69.3 µL/min/mg. The same compound showed a half-life at 1 μM (s9, Half-life) of less than 0.167 h.
For the compound `CCCCCCCCCCCCCCCC(=O)NCCOC(=O)CCC(=O)OC[C@H]1O[C@@](CO)(O[C@H]2O[C@H](CO)[C@@H](O)[C@H](O)[C@H]2O)[C@@H](O)[C@@H]1O` [Compound I-7], under “0 min”, the “Concentration (μM) of analyte PEA, 0 min” value worked out at 0.033 µM. Moreover, the “Concentration (μM) of analyte PEA, 10 min” value (shortened to “Concentration (μM) … 10 min”) (10 min) worked out at 0.24 µM. In addition, for the setting “20 min”, the “Concentration (μM) of analyte PEA, 20 min” value (shortened to “Concentration (μM) … 20 min”) is 0.29 µM. In addition, where the note is “30 min”, the “Concentration (μM) of analyte PEA, 30 min” value (shortened to “Concentration (μM) … 30 min”) amounted to 0.39 µM. For the same compound, the “Concentration (μM) of analyte PEA, 60 min” value (shortened to “Concentration (μM) … 60 min”) (60 min) came to 0.38 µM. In addition, under “s9, 0 h”, the “% Remaining of Initial (n = 1), 0 min” value amounted to 100%. Moreover, where the note is “s9, 10 min”, the “% Remaining of Initial (n = 1), 10 min” value is given as 59%. The “% Remaining of Initial (n = 1), 20 min” value (s9, 20 min) worked out at 35%. For the same compound, for the setting “s9, 0.5 h”, the “% Remaining of Initial (n = 1), 30 min” value stood at 27%. The “% Remaining of Initial (n = 1), 60 min” value (s9, 1 h) amounted to 5.7%.
As for `CCCCCCCCCCCCCCCC(=O)NCCOC(=O)CCC` [Compound I-2], the “Concentration (μM) of analyte PEA, 0 min” value (0 min) amounted to 0.52 µM. The “Concentration (μM) … 10 min” value (10 min) was determined as 0.50 µM. Moreover, for the setting “20 min”, the “Concentration (μM) … 20 min” value was 0.52 µM. For the same compound, where the note is “30 min”, the “Concentration (μM) … 30 min” value is 0.45 µM. Moreover, the “Concentration (μM) … 60 min” value (60 min) is 0.45 µM. Besides, the “% Remaining of Initial (n = 1), 0 min” value (s9, 0 h) worked out at 100%. The “% Remaining of Initial (n = 1), 10 min” value (s9, 10 min) was less than 1.0%. Further, under “s9, 20 min”, the “% Remaining of Initial (n = 1), 20 min” value is on record as less than 1.0%. The “% Remaining of Initial (n = 1), 30 min” value (s9, 0.5 h) is on record as less than 1.0%. Where the note is “s9, 1 h”, the “% Remaining of Initial (n = 1), 60 min” value is less than 1.0%. The microsomal CLint at 1 μM (s9, CLint (mL/min/mg protein)) is more than 691 µL/min/mg. Further, the half-life at 1 μM (s9, Half-life (min)) was less than 0.0167 h.
On to `CCCCC/C=C\C/C=C\CCCCCCCC(=O)OCCNC(=O)CCCCCCCCCCCCCCC` [Compound I-6], for which the “Concentration (μM) of analyte PEA, 0 min” value (0 min) amounted to 0.12 µM. Also, for the setting “10 min”, the “Concentration (μM) … 10 min” value stood at 0.14 µM. The “Concentration (μM) … 20 min” value (20 min) came to 0.17 µM. The “Concentration (μM) … 30 min” value (30 min) is 0.15 µM. Moreover, under “60 min”, the “Concentration (μM) … 60 min” value is 0.17 µM. For the same compound, the “% Remaining of Initial (n = 1), 0 min” value (s9, 0 h) amounted to 100%. Where the note is “s9, 10 min”, the “% Remaining of Initial (n = 1), 10 min” value was determined as 62%. Also, the “% Remaining of Initial (n = 1), 20 min” value (s9, 20 min) was found to be 69%. The “% Remaining of Initial (n = 1), 30 min” value (s9, 0.5 h) was 61%. The “% Remaining of Initial (n = 1), 60 min” value (s9, 1 h) is reported as 53%. Also, the microsomal CLint at 1 μM (s9, CLint (mL/min/mg protein)) is less than 11.6 µL/min/mg and the microsomal CLint at 1 μM (s9, CLint (mL/min/mg protein), calculated value in parentheses) is 10.5 µL/min/mg. Besides, the half-life at 1 μM runs as follows: (s9, Half-life (min)) more than 1 h; (s9, Half-life (min), calculated half-life in parentheses) 1.1 h.
Take `CC/C=C\C/C=C\C/C=C\C/C=C\C/C=C\CCCC(=O)OCCNC(=O)CCCCCCCCCCCCCCC` [Compound I-5]: under “0 min”, the “Concentration (μM) of analyte PEA, 0 min” value was 0.050 µM. Besides, under “10 min”, the “Concentration (μM) … 10 min” value is 0.11 µM. In addition, where the note is “20 min”, the “Concentration (μM) … 20 min” value came out at 0.076 µM. Moreover, for the setting “30 min”, the “Concentration (μM) … 30 min” value is 0.093 µM. Also, the “Concentration (μM) … 60 min” value (60 min) was 0.14 µM. In addition, the “% Remaining of Initial (n = 1), 0 min” value (s9, 0 h) is 100%. For the same compound, under “s9, 10 min”, the “% Remaining of Initial (n = 1), 10 min” value was 68%. The “% Remaining of Initial (n = 1), 20 min” value (s9, 20 min) turned out to be 67%. The “% Remaining of Initial (n = 1), 30 min” value (s9, 0.5 h) was found to be 66%. Moreover, the “% Remaining of Initial (n = 1), 60 min” value (s9, 1 h) turned out to be 49%.
`CCCCCCCCCCCCCCCC(=O)NCCOC(=O)CCC(=O)OCC(COC(=O)CCCCCCC)OC(=O)CCCCCCC` (stereo not shown) [Compound I-3, PEA-Succinate-Glycerol-Di-Caprylic]: the “Concentration (μM) of analyte PEA, 0 min” value (0 min) stood at 0 µM. In addition, the “Concentration (μM) … 10 min” value (10 min) was determined as 0.026 µM. In addition, for the setting “20 min”, the “Concentration (μM) … 20 min” value was determined as 0.024 µM. For the same compound, the “Concentration (μM) … 30 min” value (30 min) is 0.026 µM. Further, for the setting “60 min”, the “Concentration (μM) … 60 min” value came to 0.043 µM. For the setting “s9, 0 h”, the “% Remaining of Initial (n = 1), 0 min” value is 100%. Besides, the “% Remaining of Initial (n = 1), 10 min” value (s9, 10 min) is recorded as 68%. For the setting “s9, 20 min”, the “% Remaining of Initial (n = 1), 20 min” value worked out at 59%. Besides, the “% Remaining of Initial (n = 1), 30 min” value (s9, 0.5 h) is recorded as 49%. For the same compound, the “% Remaining of Initial (n = 1), 60 min” value (s9, 1 h) stood at 33%. The compound further registered a microsomal CLint at 1 μM (s9, CLint (mL/min/mg protein)) of 21.1 µL/min/mg. The half-life at 1 μM (s9, Half-life (min)) was found to be 0.55 h.
Under setting [1], `C[C@]12CC[C@H]3[C@@H](CCC4=CC(=O)CC[C@@]43C)[C@@H]1CC[C@@H]2O` [Testosterone, testosterone, reference compound] gave a CLin of less than 0.0116 ml/min/mg protein. Also, the “CLin, calculated value in parentheses” value under setting [1] is given as 0.00767 ml/min/mg protein. The microsomal CLint (s9, CLint (ml/min/mg protein), calculated value in parentheses, control compound, mouse intestinal S9 fraction, calculated value beyond duration of experiment) was 9.19 µL/min/mg; the microsomal CLint (s9, CLint (ml/min/mg protein), control compound, mouse intestinal S9 fraction) is less than 11.6 µL/min/mg; the microsomal CLint (s9, CLint, Control Compound, Mouse intestinal S9 fraction) is less than 11.6 µL/min/mg; the microsomal CLint (s9, CLint, Mouse intestinal S9 fraction, control compound) was less than 11.6 µL/min/mg. Further, the half-life is, setting by setting: (s9, Half-life (min), calculated value in parentheses, control compound, mouse intestinal S9 fraction, calculated value beyond duration of experiment) 1.25 h; (s9, Half-life (min), control compound, mouse intestinal S9 fraction) more than 1 h; (s9, Half-life, Control Compound, Mouse intestinal S9 fraction) more than 1 h; (s9, Half-life, calculated value in parentheses, control compound, mouse intestinal S9 fraction) 1.5 h; (s9, Half-life, control compound, mouse intestinal S9 fraction) more than 1 h. The compound also had a half-life at 1 μM (s9, Half-life, Mouse intestinal S9 fraction) of more than 1 h.
